Experimental findings from patent US7786141B2 (Vertex Pharmaceuticals Incorporated, priority 2004, dated 2010) are described below.

Structures are written as SMILES.

In general, Emax refers to the maximal effect, on the per cent scale that the assay sets.

One test concerns the target T1, M1 muscarinic receptor (Homo sapiens, UniProt P11229).
T1 construct: expressed in transfected cells; host or cells: CHO (M1-CHO)
T1 sequence (P11229 1-460): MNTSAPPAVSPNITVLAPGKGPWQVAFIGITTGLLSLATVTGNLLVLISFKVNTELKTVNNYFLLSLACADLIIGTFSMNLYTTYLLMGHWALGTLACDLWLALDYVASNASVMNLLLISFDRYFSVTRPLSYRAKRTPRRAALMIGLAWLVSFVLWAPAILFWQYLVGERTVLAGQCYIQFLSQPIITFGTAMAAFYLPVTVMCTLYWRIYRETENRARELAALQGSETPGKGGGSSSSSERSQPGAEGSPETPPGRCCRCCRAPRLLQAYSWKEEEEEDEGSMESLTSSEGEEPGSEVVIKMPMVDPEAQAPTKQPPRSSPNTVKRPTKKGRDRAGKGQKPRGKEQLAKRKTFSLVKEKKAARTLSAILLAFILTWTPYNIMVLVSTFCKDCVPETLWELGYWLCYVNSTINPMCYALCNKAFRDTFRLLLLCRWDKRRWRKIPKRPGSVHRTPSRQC
The test can be described thus: Functional mobilization of intracellular calcium (FLIPR) in M1-CHO cells. Format: cell-based. The settings on record: Table 4; for Emax: 100% efficacy is the maximum response obtained with the Carbachol control; for M1 Activity: modulating M1 receptor. In short, it runs like this:
(§1)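 Measured via Fluo-3 fluorescence on a FLIPR, CHO cells with either muscarinic subtype received compound in 0.5% DMSO. Antagonism was assessed after 15 min pre-incubation followed by carbachol at each subtype's EC80; agonism from compound addition alone.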
In general terms: Calcium assays in cells follow changes in intracellular calcium, usually with a dye or a luminescent sensor.

The next test deals with T2, M4 muscarinic receptor (Homo sapiens, UniProt P08173).
T2 construct: expressed in transfected cells; host or cells: CHO (M4-CHO)
T2 sequence (P08173 1-479): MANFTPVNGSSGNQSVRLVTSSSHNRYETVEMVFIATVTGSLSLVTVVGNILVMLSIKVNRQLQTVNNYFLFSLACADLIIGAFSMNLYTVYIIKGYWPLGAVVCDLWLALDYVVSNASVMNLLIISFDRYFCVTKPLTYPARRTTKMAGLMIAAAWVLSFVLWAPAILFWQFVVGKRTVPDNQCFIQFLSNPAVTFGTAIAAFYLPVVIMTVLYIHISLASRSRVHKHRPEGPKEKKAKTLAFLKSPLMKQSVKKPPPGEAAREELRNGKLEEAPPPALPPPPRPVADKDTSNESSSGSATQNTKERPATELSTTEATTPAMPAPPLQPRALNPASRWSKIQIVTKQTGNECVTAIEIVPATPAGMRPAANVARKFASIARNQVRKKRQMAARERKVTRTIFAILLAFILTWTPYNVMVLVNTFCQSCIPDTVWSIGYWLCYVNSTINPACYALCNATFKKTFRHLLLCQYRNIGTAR
The test can be described thus: Functional mobilization of intracellular calcium (FLIPR) in M4-CHO cells. In kind it is cell-based. The settings on record: Table 4; for Emax: 100% efficacy is the maximum response obtained with the Carbachol control; for M4 Activity: modulating M4 receptor. In short, it runs like this:
as §1

`CCOC(=O)N1CCC(N2CCC3(CC2)CN(C(C)=O)c2c(-c4ccccc4F)cccc23)CC1` [compound 661]: at M1 muscarinic receptor, the Emax was 25 to 100% and the “M1 Activity” value is “x (activity was measured to be greater than 5.0 μM)”. In addition, at M4 muscarinic receptor, the Emax is under 25% and the “M4 Activity” value is “x (activity was measured to be greater than 5.0 μM)”.

As for `C[C@H](O)CC(=O)N1CCC(N2CCC3(CC2)CN(C(=O)N(C)C)c2ccc(F)cc23)CC1` [compound 662], on M1 muscarinic receptor, the Emax lay within 25 to 100% and the “M1 Activity” value is “x (activity was measured to be greater than 5.0 μM)”. Also, on M4 muscarinic receptor, the Emax was in the range of 25 to 100%; the “M4 Activity” value was “xx (activity was measured to be between 2.0 μM and 5.0 μM)”.

As for `O=C(N[C@H]1CCC2(CCN(C3CCCCCC3)CC2)c2ccccc21)C1CC1` [compound 663], at M1 muscarinic receptor, the maximum response (Emax) lay in the range of 25 to 100% and the “M1 Activity” value is listed as “xxx (activity was measured to be less than 2.0 μM)”. In addition, on M4 muscarinic receptor, the Emax lay within 25 to 100% and the “M4 Activity” value is “xxx (activity was measured to be less than 2.0 μM)”.

As to `CCOC(=O)N1C2CCC1CC(N1CCC3(CC[C@H](NC(=O)C4CC4)c4ccccc43)CC1)C2` (stereo partly drawn) [compound 664], on M1 muscarinic receptor, the Emax is 25 to 100% and the “M1 Activity” value is on record as “xxx (activity was measured to be less than 2.0 μM)”. Moreover, at M4 muscarinic receptor, the maximal effect (Emax) lay within 25 to 100% and the “M4 Activity” value was “xxx (activity was measured to be less than 2.0 μM)”.

With `CC(C)C(=O)N1CCC(N2CCC3(CC2)CN(C(=O)N(C)C)c2ccc(F)cc23)CC1` [compound 665], at M1 muscarinic receptor, the Emax is 25 to 100% and the “M1 Activity” value is listed as “x (activity was measured to be greater than 5.0 μM)”. In addition, on M4 muscarinic receptor, the Emax is under 25% and the “M4 Activity” value is listed as “x (activity was measured to be greater than 5.0 μM)”.

Turning to `CC(=O)N[C@@H]1CCC2(CCN(C3CCCCCC3)CC2)c2ccccc21` [compound 666], on M1 muscarinic receptor, the Emax is under 25% and the “M1 Activity” value is “x (activity was measured to be greater than 5.0 μM)”. At M4 muscarinic receptor, the Emax was in the range of 25 to 100% and the “M4 Activity” value is recorded as “xxx (activity was measured to be less than 2.0 μM)”.

`Cc1ccc2c(c1)C1(CCN(C3CC4CCC3C4)CC1)CN2C(=O)NC(C)C` (stereo not drawn) [compound 667]: at M1 muscarinic receptor, the Emax is under 25% and the “M1 Activity” value was “x (activity was measured to be greater than 5.0 μM)”. Also, on M4 muscarinic receptor, the Emax was 25 to 100% and the “M4 Activity” value is “x (activity was measured to be greater than 5.0 μM)”.

Turning to `CS(=O)(=O)N[C@H]1CCC2(CCN([C@H]3CC4CC[C@H](C4)C3)CC2)c2ccccc21` [compound 668], on M1 muscarinic receptor, the Emax lay within 25 to 100% and the “M1 Activity” value is recorded as “xxx (activity was measured to be less than 2.0 μM)”. In addition, at M4 muscarinic receptor, the Emax lay in the range of 25 to 100% and the “M4 Activity” value was “xxx (activity was measured to be less than 2.0 μM)”.

In the case of `CCOC(=O)N1C2CCC1CC(N1CCC3(CC[C@@H](NC(C)=O)c4ccccc43)CC1)C2` (stereo partly drawn) [compound 669], on M1 muscarinic receptor, the Emax fell in the range of 25 to 100% and the “M1 Activity” value is given as “xxx (activity was measured to be less than 2.0 μM)”. In addition, at M4 muscarinic receptor, the Emax lay within 25 to 100% and the “M4 Activity” value is recorded as “xxx (activity was measured to be less than 2.0 μM)”.

Regarding `CCCN1CC2(CCN(C[C@@H]3C[C@H]4C=C[C@H]3C4)CC2)c2cc(F)ccc21` [compound 670], at M1 muscarinic receptor, the maximum response (Emax) is 25 to 100% and the “M1 Activity” value is given as “x (activity was measured to be greater than 5.0 μM)”. Also, at M4 muscarinic receptor, the Emax is 25 to 100%; the “M4 Activity” value is “xx (activity was measured to be between 2.0 μM and 5.0 μM)”.

On to `CC(=O)N[C@H]1CC2(CCN(CC(=O)N3CCCC3)CC2)c2ccccc21` [compound 671], for which, at M1 muscarinic receptor, the Emax was under 25% and the “M1 Activity” value is reported as “x (activity was measured to be greater than 5.0 μM)”. At M4 muscarinic receptor, the Emax is under 25% and the “M4 Activity” value was “x (activity was measured to be greater than 5.0 μM)”.

Regarding `CC#CCOC(=O)N1CCC(N2CCC3(CC2)CN(C(C)=O)c2ccccc23)CC1` [compound 672], at M1 muscarinic receptor, the Emax lay within 25 to 100% and the “M1 Activity” value is given as “xxx (activity was measured to be less than 2.0 μM)”. Also, on M4 muscarinic receptor, the Emax lay in the range of 25 to 100% and the “M4 Activity” value is “xxx (activity was measured to be less than 2.0 μM)”.

For `CN(C)C(=O)NC1CCC2(CCN(CC3CCCCC3)CC2)c2ccccc21` (stereo not drawn) [compound 673], at M1 muscarinic receptor, the Emax is under 25% and the “M1 Activity” value is listed as “x (activity was measured to be greater than 5.0 μM)”. Besides, on M4 muscarinic receptor, the Emax is 25 to 100%; the “M4 Activity” value was “xx (activity was measured to be between 2.0 μM and 5.0 μM)”.

In the case of `COCC(=O)N1CCC(N2CCC3(CC2)CN(C(=O)N(C)C)c2ccc(F)cc23)CC1` [compound 674], at M1 muscarinic receptor, the Emax lay within 25 to 100% and the “M1 Activity” value is “x (activity was measured to be greater than 5.0 μM)”. Also, on M4 muscarinic receptor, the Emax lay within 25 to 100% and the “M4 Activity” value is given as “x (activity was measured to be greater than 5.0 μM)”.

For `CCC#CCOC(=O)N1CC[C@H](CN2CCC3(CC2)CN(C(=O)N(C)C)c2ccc(F)cc23)C1` [compound 675], on M1 muscarinic receptor, the Emax was in the range of 25 to 100% and the “M1 Activity” value is on record as “xxx (activity was measured to be less than 2.0 μM)”. In addition, on M4 muscarinic receptor, the Emax fell in the range of 25 to 100% and the “M4 Activity” value was “xxx (activity was measured to be less than 2.0 μM)”.

As to `CCOC(=O)N1CCC(N2CCC3(CC2)CN(C(C)=O)c2c(-c4ccncc4)cccc23)CC1` [compound 677], at M1 muscarinic receptor, the Emax lay within 25 to 100% and the “M1 Activity” value is “x (activity was measured to be greater than 5.0 μM)”. Moreover, on M4 muscarinic receptor, the Emax was under 25% and the “M4 Activity” value is “x (activity was measured to be greater than 5.0 μM)”.

With `CC(=O)N1CC2(CCN(C3CCN(c4cncc(-c5ccccc5C)n4)CC3)CC2)c2ccccc21` [compound 678], on M1 muscarinic receptor, the Emax lay in the range of 25 to 100% and the “M1 Activity” value was “xxx (activity was measured to be less than 2.0 μM)”. Besides, on M4 muscarinic receptor, the maximum response (Emax) was under 25% and the “M4 Activity” value was “x (activity was measured to be greater than 5.0 μM)”.

Take `COC(=O)N1C2CCC1CC(N1CCC3(CC1)CN(C(C)=O)c1ccccc13)C2` (stereo not drawn) [compound 679]: at M1 muscarinic receptor, the Emax lay within 25 to 100% and the “M1 Activity” value was “xxx (activity was measured to be less than 2.0 μM)”. In addition, on M4 muscarinic receptor, the Emax lay within 25 to 100% and the “M4 Activity” value is given as “xxx (activity was measured to be less than 2.0 μM)”.

Take `COC(=O)N1CC[C@H](CN2CCC3(CC2)CN(C(C)=O)c2ccccc23)C1` [compound 680]: on M1 muscarinic receptor, the maximum response (Emax) is 25 to 100%; the “M1 Activity” value is “xx (activity was measured to be between 2.0 μM and 5.0 μM)”. Further, on M4 muscarinic receptor, the Emax fell in the range of 25 to 100% and the “M4 Activity” value was “xxx (activity was measured to be less than 2.0 μM)”.

Take `COCCOC(=O)N1CC[C@H](CN2CCC3(CC2)CN(C(C)=O)c2ccccc23)C1` [compound 681]: at M1 muscarinic receptor, the Emax lay in the range of 25 to 100% and the “M1 Activity” value is given as “x (activity was measured to be greater than 5.0 μM)”. At M4 muscarinic receptor, the Emax was under 25% and the “M4 Activity” value was “x (activity was measured to be greater than 5.0 μM)”.

On to `CC(=O)N[C@@H]1CC2(CCN(C3CCC3)CC2)c2ccccc21` [compound 682], for which, at M1 muscarinic receptor, the maximal response (Emax) was under 25% and the “M1 Activity” value was “x (activity was measured to be greater than 5.0 μM)”. Further, on M4 muscarinic receptor, the Emax was under 25% and the “M4 Activity” value is reported as “x (activity was measured to be greater than 5.0 μM)”.

As for `CCCCOC(=O)N1CCC(N2CCC3(CC2)CN(C(C)=O)c2ccccc23)CC1` [compound 683], on M1 muscarinic receptor, the Emax fell in the range of 25 to 100%; the “M1 Activity” value is “xx (activity was measured to be between 2.0 μM and 5.0 μM)”. On M4 muscarinic receptor, the Emax was under 25% and the “M4 Activity” value is on record as “x (activity was measured to be greater than 5.0 μM)”.

On to `CC(=O)N[C@H]1CC2(CCN(CC3CCN(C(=O)O[C@@H]4CCOC4)CC3)CC2)c2ccccc21` [compound 684], for which, at M1 muscarinic receptor, the Emax is under 25% and the “M1 Activity” value is “x (activity was measured to be greater than 5.0 μM)”. On M4 muscarinic receptor, the Emax was under 25% and the “M4 Activity” value is listed as “x (activity was measured to be greater than 5.0 μM)”.

As to `CN(C)C(=O)N1CC2(CCN(C3CCNCC3)CC2)c2cc(F)ccc21` [compound 685], at M1 muscarinic receptor, the Emax was under 25% and the “M1 Activity” value is recorded as “x (activity was measured to be greater than 5.0 μM)”. Further, at M4 muscarinic receptor, the Emax fell in the range of 25 to 100% and the “M4 Activity” value is given as “xxx (activity was measured to be less than 2.0 μM)”.
